Earlier results as cited in patent EP0266006A2, “Novel hypotensive diuretic peptides” (SHIONOGI SEIYAKU KABUSHIKI KAISHA trading under the name of …, priority 1986, dated 1988).
Where no end group is shown, it is not given here.

Settings: said to be so, unlike α type or γ type

In the case of “β-hANP: antiparallel dimer of α-hANP (SLRRSSCFGGRMDRIGAQSGLGCNSFRY; ends and bridges not checked; also: antiparallel dimer of α-hANP; UniProt P01160 124-151, looked up)”, the “diuretic action (duration)” value is listed as “persistent”.
